Reference: patent US20240352066A1, “ANTIMICROBIAL COMPOUNDS AND THE METHOD OF USE” (priority 2021, published 2024)
In brackets after ≈: the same amount, converted by molar mass. Where a SMILES comes first, the peptide text is derived from it. [ ]: non-standard residue; d: D form. N(tridecyl)Gly = CCCCCCCCCCCCCNCC(=O)O; Gly(N-2-aminoethyl) = NCCNCC(=O)O; Gly(N-cHex) = O=C(O)CNC1CCCCC1; Nleu = CC(C)CNCC(=O)O; Nlys = NCCCCNCC(=O)O

Legend:
[1] = system: human red blood cells (hRBC); experiment: Hemolytic activity against human red blood cells; assay type: cell-based; settings: for hRBC HC10: Example 2, same donor sample of hRBCs
Protocol: Hemolytic activity was determined using single donor human red blood cells (hRBC). hRBCs were washed with PBS and centrifuged (1000 RPM; 10 minutes) three times, resuspended in PBS and aliquoted (100 μL) in 96 well plates. 2-fold serial dilutions of 10× peptoid final concentrations in PBS were prepared and added to wells in triplicate. PBS was used as a vehicle control and 1% Triton X-100 as a positive control. Plates were incubated for 1 hour (37° C.; 5% CO2) then centrifuged (1000 RPM; 10 minutes) and supernatant was diluted 1:20 into PBS in a new 96-well plate. Plates were read on a SpectraMax M5 plate reader (Abs. 405 nm). Percent hemolysis was determined by the following equation: […]
GraFit was used to determine concentrations at 50% hemolytic activity (HC50) and the Hill coefficient (H). Hemolytic activity at 10% (HC10) was then determined by the following equation: […]
The hemolytic activity of select peptoids was determined as done previously (Green et al. ACS medicinal chemistry letters 12 9, 1470-1477 (2021); Middleton et al. Bioorganic & medicinal chemistry letters 28 22, 3514-3519 (2018)). Selected peptoids were prepared in 2-fold serial dilutions in PBS at the desired concentrations. Human red blood cells (hRBCs, 9 mL) were centrifuged at 1000 rpm for 10 minutes, and the supernatant was removed and discarded. A 10 mL aliquot of PBS was used to resuspend the hRBCs which were centrifuged again at 1000 rpm for 10 minutes. This PBS wash was completed two more times for a total of three washes. A 9 mL aliquot of PBS was added to the hRBCs, and 100 μL of cell solution was added to individual wells of a 96-well plate. Peptoid solutions (11.1 μL) were added to the appropriate wells in triplicate. A vehicle control of PBS and positive control of 1% Triton X-100 were added to wells in triplicate.
The plate was incubated at 37° C. for 1 hour and centrifuged at 1000 rpm for 10 minutes. For each well, 5 μL of supernatant was transferred to 95 μL of PBS in a new 96-well plate. The absorbance at 405 nm was measured using a SpectraMax M5 Plate Reader, and the percent hemolysis was calculated as follows: […]

C. albicans biofilm = assay type: cell-based, Candida albicans; settings: 24 h
Protocol: Plates were incubated overnight at 37° C. Media was gently removed and gently washed three times with PBS. RPMI-MOPS (198 μL) were added to each well. 2-fold serial dilutions of 100× peptoid solutions were prepared in water and 2 μL of peptoid were added to each well in triplicate then incubated at 37° C. for 24 hours. PrestoBlue (20 μL) was added to each well and incubated at 37° C. for one hour before measuring fluorescence on a SpectraMax M5 plate reader (Ex. 555 nm; Em. 585 nm).

[2] = system: Klebsiella pneumoniae ATCC 13883; assay type: cell-based; settings: ATCC 13883, 24 h
Protocol: (§1) The minimum inhibitory concentration (MIC) of peptoids against the ESKAPE bacteria (Enterococcus faecium ATCC 6569; Staphylococcus aureus ATCC 29213; Klebsiella pneumoniae ATCC 13883; Acinetobacter 55aumannii ATCC 19606; Pseudomonas aeruginosa ATCC 25619; Enterococcus faecalis ATCC 29212; and Escherichia coli ATCC 25922) was determined following CLSI guidelines (CLSI. Methods for Dilution Antimicrobial Susceptibility Tests for Bacteria That Grow Aerobically, 11th Edition. (Clinical and Laboratory Standards Institute, 2018). The MIC against Mycobacterium smegmatis was also determined following CLSI guidelines (Woods et al., Susceptibility Testing of Mycobacteria, Nocardiae, and Other Aerobic Actinomycetes, 2nd edition. (2011)). Colonies picked from streaked tryptic soy agar plates were added to tryptic soy broth (TSB) to achieve a turbidity of OD600=0.08-0.15. Inoculant was diluted 1:200 into cation adjust Mueller Hinton Broth (CAVHB) and 90 μL was plated into each well of a 96 well black-wall plate. 2-fold serial dilutions of 10× peptoid (10 μL) were added to each well in triplicate and incubated at 37° C. for 24 hours for the ESKAPE bacteria and 72 hours for M. smegmatis. Tetracycline (20 μg/mL) was used as a positive control with DI water was used as a vehicle control. Following incubation for the ESKAPE bacteria, PrestoBlue (10 μL) was added to each well and incubated at 37° C. for one hour before measuring fluorescence on a SpectraMax M5 plate reader (Ex. 555 nm; Em. 585 nm). Following incubation for M. smegmatis, wells were scored following CLSI guidelines to determine MIC. This assay was repeated three times on separate days.

[3] = system: Enterococcus faecium ATCC 6569; assay type: cell-based; settings: ATCC 6569, 24 h
Protocol: as §1

[4] = system: Escherichia coli ATCC 25922; assay type: cell-based; settings: ATCC 25922, 24 h
Protocol: as §1

Mycobacterium smegmatis = assay type: cell-based; settings: 72 h
Protocol: as §1

[5] = system: Enterococcus faecalis ATCC 29212; assay type: cell-based; settings: ATCC 29212, 24 h
Protocol: as §1

[6] = system: Pseudomonas aeruginosa ATCC 25619; assay type: cell-based; settings: ATCC 25619, 24 h
Protocol: as §1

[7] = system: Staphylococcus aureus ATCC 29213; assay type: cell-based; settings: ATCC 29213, 24 h
Protocol: as §1

C. neoformans = experiment: microbe, parasite or virus in culture; assay type: cell-based, Cryptococcus neoformans; settings: 72 h
Protocol: Cell solution was diluted into RPMI-MOPS (1:100) followed by another dilution into RPMI-MOPS (1:20). […] Plates were incubated for 72 hours at 35° C. MIC was determined as the lowest concentration of individual compound or combined compounds inhibiting pathogen growth. Fractional inhibitory concentration index (FICi) was determine using the following equation: FICi values were interpreted as follows: FICi<0.5 synergistic; 0.5≤FICi≤4 indifferent; FICi>4 antagonist (Johnson et al., Antimicrob. Agents Chemother. 48, 693-715 (2004)).

| Compound | hRBC HC10 [1] | MIC C. albicans biofilm (MBIC) (C. albicans biofilm) | MIC K. pneumoniae [2] | MIC E. faecium [3] | MIC E. coli [4] | MIC M. smegmatis (Mycobacterium smegmatis) | MIC E. faecalis [5] | MIC P. aeruginosa [6] | MIC S. aureus [7] | HC10 hRBC ([1]; Example 1, 10% lysis, 1 hour) | MIC (compound alone) (C. neoformans) |
| --- | --- | --- | --- | --- | --- | --- | --- | --- | --- | --- | --- |
| CCCCCCCCCCCCCNCC(=O)N(CC(=O)N(CCCCN)CC(=O)N(CCN)CC(=O)N(CC(N)=O)CC(C)C)CC(C)C [Compound 9] (H-[N(tridecyl)Gly][Nleu][Nlys][Gly(N-2-aminoethyl)][Nleu]-NH2) | 130 ± 45 µg/mL |  |  |  |  |  |  |  |  |  |  |
| CCCCCCCCCCCCCNCC(=O)N(CC(=O)N(CCCCN)CC(=O)N(CCN)CC(=O)N(CC(N)=O)C1CCCCC1)C1CCCCC1 [RMG8-8, Ntri-Ncha-Nlys-Nae-Ncha] (H-[N(tridecyl)Gly][Gly(N-cHex)][Nlys][Gly(N-2-aminoethyl)][Gly(N-cHex)]-NH2) | 75 ± 31 µg/mL | 100 µg/mL (≈ 131 µM) | 100 µg/mL (≈ 131 µM) | 6.25 µg/mL (≈ 8.19 µM) | 12.5 µg/mL (≈ 16.4 µM) | 3.13 to 6.25 µg/mL | 6.25 µg/mL (≈ 8.19 µM) | 100 µg/mL (≈ 131 µM) | 6.25 µg/mL (≈ 8.19 µM) | 77 µg/mL | 1.56 µg/mL |
